Patent US20080027063A1, “IMIDAZOPYRAZINES AS PROTEIN KINASE INHIBITORS” (Schering Corporation, priority 2006, published 2008)

tested on: CHK1; test: CHK1 SPA Assay; type: biochemical; conditions: recombinant His-CHK1, CDC25C biotinylated peptide, 1 μM ATP, 2 hours, room temperature
Protocol: CHK1 SPA Assay An in vitro assay was developed that utilizes recombinant His-CHK1 expressed in the baculovirus expression system as an enzyme source and a biotinylated peptide based on CDC25C as substrate (biotin-[…]). Materials and Reagents: 1) CDC25C […]-term Biotinylated peptide substrate (25 mg), stored at -20° C., Custom Synthesis by Research Genetics: biotin-[…] 2) His-CHK1 In House lot P976, 235 μg/mL, stored at -80° C. 3) D-PBS (without CaCl and MgCl): GIBCO, Cat.# 14190-144 4) SPA beads: Amersham, Cat.# SPQ0032: 500 mg/vial • Add 10 mls of D-PBS to 500 mg of SPA beads to make a working concentration of 50 mg/ml. Store at 4° C. Use within 2 week after hydration. 5) 96-Well White Microplate with Bonded GF/B filter: Packard, Cat.# 6005177 6) Top seal-A 96 well Adhesive Film: Perkin Elmer, Cat.# 6005185 7) 96-well Non-Binding White Polystyrene Plate: Corning, Cat. # 6005177 8) MgCl2: Sigma, Cat.# M-8266 9) DTT: Promega, Cat.# V3155 10) ATP, stored at 4° C.: Sigma, Cat.# A-5394 11) γ^33P-ATP, 1000-3000 Ci/mMol: Amersham, Cat.# AH9968 12) NaCl: Fisher Scientific, Cat.# BP358-212 13) H3PO4 85% Fisher, Cat.#A242-500 14) Tris-HCL pH 8.0: Bio-Whittaker, Cat. # 16-[…] 15) Staurosporine, 100 ug: CALBIOCHEM. Cat. # 569397 16) Hypure Cell Culture Grade Water, 500 mL: HyClone, Cat.# SH30529.02 Reaction Mixtures: 1) Kinase Buffer: 50 mM Tris pH 8.0; 10 mM MgCl2; 1 mM DTT 2) His-CHK1, In House Lot P976, MW 30 KDa, stored at -80° C. 6 nM is required to yield positive controls of 5,000 CPM. For 1 plate (100 rxn): dilute 8 μL of 235 ug/mL (7.83 uM) stock in 2 mL Kinase Buffer. This makes a 31 nM mixture. Add 20 μL/well. This makes a final reaction concentration of 6 nM. 3) CDC25C Biotinylated peptide. Dilute CDC25C to 1 mg/mL (385 uM) stock and store at -20° C. For 1 plate (100 rxn): dilute 10 μL of 1 mg/mL peptide stock in 2 ml Kinase Buffer. This gives a 1.925 uM mix. Add 20 μL/rxn. This makes a final reaction concentration of 385 nM 4) ATP Mix. For 1 plate (100 rxn): dilute 10 μL of 1 mM ATP (cold) stock and 2 μL fresh P33-ATP (20 μCi) in 5 ml Kinase Buffer. This gives a 2 uM ATP (cold) solution; add 50 μl/well to start the reaction. Final volume is 100 μl/rxn so the final reaction concentrations will be 1 uM ATP (cold) and 0.2 μCi/reaction. 5) Stop Solution: For 1 plate add: To 10 mL Wash Buffer 2 (2M NaCl 1% H3PO4): 1 mL SPA bead slurry (50 mg); Add 100 μL/well 6) Wash buffer 1: 2 M NaCl 7) Wash buffer 2: 2 M NaCl, 1% H3PO4 Assay Procedure: [table] 1) Dilute compounds to desired concentrations in water/10% DMSO-this will give a final DMSO concentration of 1% in the reaction. Dispense 10 μl/rxn to appropriate wells. Add 10 μL 10% DMSO to positive (CHK1+CDC25C+ATP) and negative (CHK1+ATP only) control wells. […]

SMILES | IC50 [nM]
Cc1ccc(-c2cnc(N)c3nc(C4CCCNC4)cn23)s1 (stereo not shown) | 216
Nc1ncc(-c2cc3ccccc3s2)n2cc(C3CCCNC3)nc12 (stereo not shown) | 187
Nc1ncc(-c2cc(-c3ccc(Cl)cc3)cs2)n2cc([C@H]3CCCNC3)nc12 | 84
Nc1ncc(-c2cc(-c3ccccc3)cs2)n2cc([C@H]3CCCNC3)nc12 | 139
